Biological target: T1, human Cav3.2 channel (Homo sapiens, UniProt O95180)
T1 construct: expressed in transfected cells
Assay: Intracellular calcium concentration measurement in human Cav3.2 channel expressing stable cell line (Pharmacological Test 1)
Format: cell-based
Settings: HEK293 cells stably expressing human Cav3.2, Fluo-4 AM fluorescence, KCl stimulation; read-out: Cav3.2 channel inhibitory action
Text: (1) Construction of Human Cav3.2 Channel Expressing Stable Cell Line
A sequence in which a HindIII site and a kozak sequence (GCCACC) was provided on a 5′ side of a human Cav3.2 channel open reading frame (ORF) gene and a KpnI site was provided on a 3′ side thereof was incorporated into pcDNA3.1(+) (Thermo Fisher Scientific #V790-20), and the resultant was transfected into a HEK293 cell (ATCC No. CRL-1573) according to a protocol of FuGENE (registered trademark) HD Transfection Reagent (Promega #E2311).
(2) Method of Measuring Intracellular Calcium Concentration
The human Cav3.2 channel expressing stable cell line prepared by the test method (1) was seeded in a 96-well plate using a Dulbecco's modified Eagle's medium (DMEM medium) containing 10% fetal bovine serum (FBS), followed by culturing 37° C. for 48 hours under a 5% CO2 condition. Thereafter, the medium was removed, and each well washed with an A buffer was treated with 80 μL of a fluorescent dye solution containing a liquid mixture of 22 μg of a calcium fluorescent indicator Fluo-4 AM (Dojindo Molecular Technologies, Inc., #F311), 20 μL of dimethyl sulfoxide (DMSO), 1 μL of 10% Pluronic F-127 (Thermo Fisher Scientific #P6866), and 4 mL of the A buffer. After being left to stand for 45 minutes at room temperature under a light shielding condition, the cells were washed with a B buffer. In DMSO having the same final concentration as the test compound as a negative control, and the test compound dissolved in DMSO to have a final concentration of 0.1%, each test compound concentration solution containing the B buffer was added to each well. The cells were left to stand for additional 15 minutes at room temperature under a light shielding condition, and were measured using microplate reader EnVision (PerkinElmer Co., Ltd.) by the following method. First, after measuring background fluorescence in each well, an ionophore was added, and baseline fluorescence was measured. Thereafter, B buffer containing added KCl at a concentration of 83.8 mM was added to each well, and an increase in fluorescence due to calcium influx caused by the stimulation was measured for 10 seconds. Inhibition percentage was calculated from the maximum fluorescence increase value from the baseline, and an IC50 value was calculated by plotting a logarithmic value of the test compound concentration and inhibition activity. The measurement was performed by observing fluorescence of 510 nm emitted when the cells were irradiated with excitation light of 485 nm.
A buffer: 140 mM NaCl, 5 mM KCl, 1 mM MgCl2, 0.5 mM CaCl2, 10 mM Glucose, 10 mM HEPES, pH 7.3
B buffer: potassium equilibrium potential: −92 mV

T1 sequence (O95180 whole entry): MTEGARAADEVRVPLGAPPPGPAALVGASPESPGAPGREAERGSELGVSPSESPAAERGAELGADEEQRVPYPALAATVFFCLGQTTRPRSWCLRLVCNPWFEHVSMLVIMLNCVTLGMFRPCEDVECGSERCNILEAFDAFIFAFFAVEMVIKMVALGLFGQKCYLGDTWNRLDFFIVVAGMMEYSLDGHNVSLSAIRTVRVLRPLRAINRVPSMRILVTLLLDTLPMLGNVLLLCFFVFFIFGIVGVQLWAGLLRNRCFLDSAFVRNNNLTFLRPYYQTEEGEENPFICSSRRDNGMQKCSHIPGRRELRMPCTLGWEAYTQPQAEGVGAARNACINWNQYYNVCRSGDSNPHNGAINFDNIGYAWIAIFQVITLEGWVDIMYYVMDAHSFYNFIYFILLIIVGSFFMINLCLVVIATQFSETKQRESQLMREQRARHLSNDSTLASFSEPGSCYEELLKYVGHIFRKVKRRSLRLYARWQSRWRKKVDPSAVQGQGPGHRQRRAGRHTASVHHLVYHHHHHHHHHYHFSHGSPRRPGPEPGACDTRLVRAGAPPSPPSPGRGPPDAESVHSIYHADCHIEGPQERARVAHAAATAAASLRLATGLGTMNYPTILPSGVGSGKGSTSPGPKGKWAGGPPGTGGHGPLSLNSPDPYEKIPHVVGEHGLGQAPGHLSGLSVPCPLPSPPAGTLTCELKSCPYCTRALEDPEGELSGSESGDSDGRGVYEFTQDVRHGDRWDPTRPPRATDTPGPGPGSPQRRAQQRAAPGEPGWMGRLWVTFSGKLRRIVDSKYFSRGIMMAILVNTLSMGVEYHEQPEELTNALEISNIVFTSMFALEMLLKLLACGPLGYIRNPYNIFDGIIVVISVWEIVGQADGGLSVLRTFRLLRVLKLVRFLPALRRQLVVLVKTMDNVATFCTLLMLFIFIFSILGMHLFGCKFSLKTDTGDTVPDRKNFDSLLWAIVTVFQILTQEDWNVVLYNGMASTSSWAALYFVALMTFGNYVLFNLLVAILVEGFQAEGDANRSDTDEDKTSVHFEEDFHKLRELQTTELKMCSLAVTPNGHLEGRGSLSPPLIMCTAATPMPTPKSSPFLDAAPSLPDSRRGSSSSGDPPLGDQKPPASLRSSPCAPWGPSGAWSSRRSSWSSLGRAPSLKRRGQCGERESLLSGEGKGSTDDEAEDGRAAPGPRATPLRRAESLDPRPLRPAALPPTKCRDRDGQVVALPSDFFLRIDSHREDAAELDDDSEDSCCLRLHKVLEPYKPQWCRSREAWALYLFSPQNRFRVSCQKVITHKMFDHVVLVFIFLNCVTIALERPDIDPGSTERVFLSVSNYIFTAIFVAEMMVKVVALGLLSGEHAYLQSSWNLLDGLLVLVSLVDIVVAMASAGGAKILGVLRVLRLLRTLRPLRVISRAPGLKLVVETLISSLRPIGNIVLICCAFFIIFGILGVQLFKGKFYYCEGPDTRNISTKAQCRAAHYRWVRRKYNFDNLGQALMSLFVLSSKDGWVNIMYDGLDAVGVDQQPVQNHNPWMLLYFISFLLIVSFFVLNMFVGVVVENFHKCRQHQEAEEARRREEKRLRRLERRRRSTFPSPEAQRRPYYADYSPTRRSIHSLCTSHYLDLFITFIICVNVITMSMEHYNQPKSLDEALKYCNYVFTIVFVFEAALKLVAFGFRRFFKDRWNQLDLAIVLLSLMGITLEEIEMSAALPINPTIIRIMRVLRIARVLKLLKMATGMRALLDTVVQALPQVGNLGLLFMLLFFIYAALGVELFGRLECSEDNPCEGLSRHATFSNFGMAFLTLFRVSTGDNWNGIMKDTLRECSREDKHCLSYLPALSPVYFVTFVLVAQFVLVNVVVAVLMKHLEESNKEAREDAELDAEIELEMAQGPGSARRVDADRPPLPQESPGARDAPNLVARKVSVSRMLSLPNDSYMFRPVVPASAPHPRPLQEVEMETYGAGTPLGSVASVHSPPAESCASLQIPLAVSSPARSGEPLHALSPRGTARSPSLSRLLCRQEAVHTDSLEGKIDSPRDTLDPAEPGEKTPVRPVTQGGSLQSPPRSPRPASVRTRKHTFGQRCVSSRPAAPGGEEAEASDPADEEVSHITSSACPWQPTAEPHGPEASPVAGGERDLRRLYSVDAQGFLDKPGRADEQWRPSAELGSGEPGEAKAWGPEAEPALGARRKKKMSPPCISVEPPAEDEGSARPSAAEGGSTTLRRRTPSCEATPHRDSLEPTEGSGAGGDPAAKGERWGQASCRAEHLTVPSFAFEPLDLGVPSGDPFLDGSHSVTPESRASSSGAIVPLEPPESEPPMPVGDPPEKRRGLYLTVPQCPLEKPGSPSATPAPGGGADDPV

Compound | IC50 [µM]
O=C(NC1(C(=O)Nc2cccc(OC(F)(F)F)c2)CC1)[C@H]1C[C@@H]1c1nc2ccccc2[nH]1 [Example 43, 1-((1S, 2S)-2-(1H-Benzo[d]imidazol-2-yl)cyclopropane-1-carboxamido)-N-(3-(trifluoromethoxy)phenyl) cyclopropane-1-carboxamide] | ≤ 0.1
O=C(NC1(C(=O)Nc2cncc(C(F)(F)F)c2)CC1)[C@H]1C[C@@H]1c1nc2ccccc2[nH]1 [Example 29, 1-((1S, 2S)-2-(1H-Benzo[d]imidazol-2-yl)cyclopropane-1-carboxamido)-N-(5-(trifluoromethyl)pyridin-3-yl) cyclopropane-1-carboxamide] | 1 to 10
O=C(CNC(=O)[C@H]1C[C@@H]1c1nc2ccccc2[nH]1)Nc1cccc(C(F)(F)F)c1 [Example 39, (1S, 2S)-2-(1H-Benzo[d]imidazol-2-yl)-N-(2-oxo-2-((3-(trifluoromethyl)phenyl)amino)ethyl) cyclopropane-1-carboxamide] | ≤ 0.1
O=C(NC1(C(=O)Nc2ccc(F)c(C(F)(F)F)c2)CC1)[C@H]1C[C@@H]1c1nc2ccccc2[nH]1 [Example 31, 1-((1S, 2S)-2-(1H-Benzo[d]imidazol-2-yl)cyclopropane-1-carboxamido)-N-(4-fluoro-3-(trifluoromethyl)phenyl) cyclopropane-1-carboxamide] | ≤ 0.1
O=C(NC1(C(=O)Nc2cccc(C(F)(F)F)c2)CC1)[C@H]1C[C@@H]1c1nc2ccccc2n1C1CC1 [Example 40, 1-((1S, 2S)-2-(1-Cyclopropyl-1H-benzo[d]imidazol-2-yl)cyclopropane-1-carboxamido)-N-(3-(trifluoromethyl)phenyl) cyclopropane-1-carboxamide] | ≤ 0.1
CC(C)N(C(=O)CNC(=O)[C@H]1C[C@@H]1c1nc2ccccc2[nH]1)c1ccc(C(F)(F)F)nc1 [Example 30, (1S, 2S)-2-(1H-Benzo[d]imidazol-2-yl)-N-(2-(isopropyl (6-(trifluoromethyl)pyridin-3-yl)amino)-2-oxoethyl) cyclopropane-1-carboxamide] | > 10
O=C(NC1(C(=O)Nc2ccccc2C(F)(F)F)CC1)[C@H]1C[C@@H]1c1nc2ccccc2[nH]1 [Example 25, 1-((1S, 2S)-2-(1H-Benzo[d]imidazol-2-yl)cyclopropane-1-carboxamido)-N-(2-(trifluoromethyl)phenyl) cyclopropane-1-carboxamide] | 1 to 10
CC(C)C[C@@H](NC(=O)[C@H]1C[C@@H]1c1nc2ccccc2[nH]1)C(=O)Nc1cccc(C(F)(F)F)c1 [Example 37, (1S, 2S)-2-(1H-Benzo[d]imidazol-2-yl)-N—((R)-4-methyl-1-oxo-1-((3-(trifluoromethyl)phenyl)amino)pentan-2-yl) cyclopropane-1-carboxamide] | 0.1 to 1
CC(NC(=O)C1CC1c1nc2ccccc2[nH]1)C(=O)NCc1ccc(S(C)(=O)=O)cc1 (stereo not drawn) [Example 9, Trans-2-(1H-benzo[d]imidazol-2-yl)-N-(1-((4-(methylsulfonyl)benzyl)amino)-1-oxopropan-2-yl) cyclopropane-1-carboxamide] | > 10
O=C(NC1(C(=O)Nc2ccc(F)c(C(F)(F)F)c2)CC1)[C@H]1C[C@@H]1c1nc2cc(Cl)ccc2[nH]1 [Example 34, 1-((1S, 2S)-2-(5-Chloro-1H-benzo[d]imidazol-2-yl)cyclopropane-1-carboxamido)-N-(4-fluoro-3-(trifluoromethyl)phenyl) cyclopropane-1-carboxamide] | ≤ 0.1
CC(NC(=O)C1CC1c1nc2ccccc2[nH]1)C(=O)Nc1ccc(C#N)cc1 (single isomer, unassigned) [Example 6A, Trans-2-(1H-benzo[d]imidazol-2-yl)-N-(1-((4-cyanophenyl)amino)-1-oxopropan-2-yl) cyclopropane-1-carboxamide] | 1 to 10
CCn1c([C@H]2C[C@@H]2C(=O)NC2(C(=O)Nc3ccc(C(F)(F)F)nc3)CC2)nc2ccccc21 [Example 27, 1-((1S, 2S)-2-(1-Ethyl-1H-benzo[d]imidazol-2-yl)cyclopropane-1-carboxamido)-N-(6-(trifluoromethyl)pyridin-3-yl) cyclopropane-1-carboxamide] | ≤ 0.1
CC(NC(=O)C1CC1c1nc2ccccc2[nH]1)C(=O)Nc1ccc(C(F)(F)F)nc1 (single isomer, unassigned) [Example 5B, Trans-2-(1H-benzo[d]imidazol-2-yl)-N-(1-oxo-1-((6-(trifluoromethyl)pyridin-3-yl)amino)propan-2-yl) cyclopropane-1-carboxamide] | 0.1 to 1
CCC(=O)N1CCC(NC(=O)C(C)NC(=O)C2CC2c2nc3ccccc3[nH]2)CC1 (stereo not drawn) [Example 13, Trans-2-(1H-benzo[d]imidazol-2-yl)-N-(1-oxo-1-((1-propionylpiperidin-4-yl)amino)propan-2-yl) cyclopropane-1-carboxamide] | > 10
CCCc1ccc(NC(=O)C(C)NC(=O)C2CC2c2nc3ccccc3[nH]2)cc1 (single isomer, unassigned) [Example 2A, Trans-2-(1H-benzo[d]imidazol-2-yl)-N-(1-oxo-1-((4-propylphenyl)amino)propan-2-yl) cyclopropane-1-carboxamide] | 0.1 to 1
O=C(NC1(C(=O)Nc2ccc(C(F)(F)F)cc2F)CC1)[C@H]1C[C@@H]1c1nc2ccccc2[nH]1 [Example 28, 1-((1S, 2S)-2-(1H-Benzo[d]imidazol-2-yl)cyclopropane-1-carboxamido)-N-(2-fluoro-4-(trifluoromethyl)phenyl) cyclopropane-1-carboxamide] | 0.1 to 1
CC(NC(=O)C1CC1c1nc2ccccc2[nH]1)C(=O)N(C)c1ccc(C(F)(F)F)cc1 (single isomer, unassigned) [Example 8A, Trans-2-(1H-benzo[d]imidazol-2-yl)-N-(1-(methyl(4-(trifluoromethyl)phenyl)amino)-1-oxopropan-2-yl) cyclopropane-1-carboxamide] | 0.1 to 1

Results, then the molecule that gave them:

IC50 [µM] | Compound
1 to 10 | O=C(Nc1ccc(C(F)(F)F)cc1)C1CCCN1C(=O)C1CC1c1nc2ccccc2[nH]1 (single isomer, unassigned) [Example 19A, Trans-1-(2-(1H-benzo[d]imidazol-2-yl)cyclopropane-1-carbonyl)-N-(4-(trifluoromethyl)phenyl)pyrrolidine-2-carboxamide]
1 to 10 | O=C(NC1CC(=O)N(c2ccc(C(F)(F)F)nc2)C1)[C@H]1C[C@@H]1c1nc2ccccc2[nH]1 (single isomer, unassigned) [Example 33A]
> 10 | CC(NC(=O)C1CC1c1nc2ccccc2[nH]1)C(=O)Nc1cnc(Br)cn1 (single isomer, unassigned) [Example 18B, Trans-2-(1H-benzo[d]imidazol-2-yl)-N-(1-((5-bromopyrazin-2-yl)amino)-1-oxopropan-2-yl) cyclopropane-1-carboxamide]
1 to 10 | O=C(NC1CCN(c2ccc(C(F)(F)F)cc2)C1=O)[C@H]1C[C@@H]1c1nc2ccccc2[nH]1 (single isomer, unassigned) [Example 23A]
0.1 to 1 | O=C(NC1CCN(c2ccc(C(F)(F)F)cc2)C1=O)[C@H]1C[C@@H]1c1nc2ccccc2[nH]1 (single isomer, unassigned) [Example 23B]
0.1 to 1 | COCC(NC(=O)[C@H]1C[C@@H]1c1nc2ccccc2[nH]1)C(=O)Nc1ccc(F)c(C(F)(F)F)c1 (single isomer, unassigned) [Example 32A]

Reference: US11370761B2, “Voltage-dependent T-type calcium channel inhibitor” (Nippon Chemiphar Co., Ltd., priority 2017, dated 2022)
